“Also recorded” adds a separate entry of the source.
Columns and labels:
ADMP-1 = target: T1, ADMP-1 (Bos taurus, UniProt Q9TT93); assay: Binding of 67 kDa ADMP-1 doublet to aggrecanase-inhibitor hydroxamate affinity resin in the presence of inhibitor; set-up: species or system bovine
T1 construct: from tissue; host or cells: conditioned medium of IL-1-stimulated bovine nasal cartilage, purified over Macro S, gelatin-agarose and TIMP-1/protein A
T1 sequence (Q9TT93 213-839): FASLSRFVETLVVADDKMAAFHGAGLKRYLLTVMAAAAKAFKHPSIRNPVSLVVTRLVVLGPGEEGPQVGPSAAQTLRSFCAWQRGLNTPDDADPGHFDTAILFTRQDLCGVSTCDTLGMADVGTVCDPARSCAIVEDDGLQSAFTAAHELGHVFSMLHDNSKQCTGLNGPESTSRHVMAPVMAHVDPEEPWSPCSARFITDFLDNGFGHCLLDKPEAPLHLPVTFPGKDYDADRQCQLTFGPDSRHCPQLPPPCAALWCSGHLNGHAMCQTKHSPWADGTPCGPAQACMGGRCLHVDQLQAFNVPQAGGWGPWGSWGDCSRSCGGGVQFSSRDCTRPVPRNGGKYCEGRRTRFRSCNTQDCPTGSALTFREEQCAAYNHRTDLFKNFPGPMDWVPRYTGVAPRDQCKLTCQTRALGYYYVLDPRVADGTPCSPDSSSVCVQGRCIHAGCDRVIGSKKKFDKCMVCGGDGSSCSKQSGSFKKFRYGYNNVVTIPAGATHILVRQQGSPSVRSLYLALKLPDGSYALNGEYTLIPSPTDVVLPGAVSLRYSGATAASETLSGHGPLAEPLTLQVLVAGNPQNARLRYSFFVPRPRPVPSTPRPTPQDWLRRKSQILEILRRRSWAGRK
Excerpt: An ADMP-inhibitor hydroxamate affinity resin was produced in the following manner. POROS 20-NH perfusive chromatographic media (Perseptive Biosystems), a highly crosslinked poly(styrene divinylbenzene) polymer, was mixed overnight with four equivalents of Fmoc-beta-alanine, four equivalents HBTU (O-Benzotriazole-N,N,N′,N′-tetramethyl-uronium hexafluorophosphate), and eight equivalents DIEA (N,N diisopropylethylamine) in DMF (dimethylformamide). The resin was rinsed several times with DMF, then the FMOC group was removed with 20% piperidine/DMF. This coupling/deprotecting scheme was repeated three more times, resulting in four beta-alanine residues coupled to the resin. After the final piperidine deprotection, 1.5 equivalents of a t-butyl protected hydroxamic acid capable of inhibiting ADMP activity was coupled with 1.5 equivalents HBTU and 3 equivalents DIEA in DMF. After rinsing with DMF and CH2Cl2, the t-butyl group was removed by mixing overnight with TFA (trifluoroacetic acid), leaving the hydroxamic acid. The resin was thoroughly rinsed with CH2Cl2 and dried under vacuum.
The eluate from the protein A column was neutralized with 1 M Tris base to pH 7.5 and then incubated for 2 hours with the aggrecanase-inhibitor hydroxamate resin at a ratio of 1 mg resin for every 1 ml of eluate. […]

[1] = system: matrix metalloproteinases; assay: Inhibition of matrix metalloproteinases; type: biochemical
ADMP = ADMP (aggrecanase) activity: cleavage of purified bovine aggrecan monomers at Glu373-Ala374, BC-3 neoepitope antibody Western; type: biochemical
Description: ADMPs were detected at this point by their ability to cleave purified bovine aggrecan monomers isolated from bovine nasal cartilage by the following procedure: Aggrecan was extracted from the cartilage by stirring at 4° C. for 48 hours in 10 volumes of 4M guanidine-HCl in 0.05 M sodium acetate, pH 5.8, containing the protease inhibitors, 0.01M EDTA (EDTA is ethylenediaminetetraacetic acid), 0.1M 6-aminohexanoic acid, 2 mM PMSF and 0.05M benzamidine HCl. Aggrecan monomers were isolated by equilibrium density gradient centrifugation in cesium chloride [Hascall, V. C. and Sajdera, S. W. (1969) J. Biol. Chem. 244, 2384-2396.] and the bottom of this gradient (d>1.54 g/ml) containing the aggrecan monomers, was dialyzed at 4° C. against water and lyophilized.
These aggrecan monomers (500 nM) were incubated at 37° C. for at least 4 hr with ADMPs eluted from the Macro S support column in a final volume of 200 ul in Buffer B (Buffer B contains 50 mM Tris, pH 7.6, containing 0.1 M NaCl and 10 mM CaCl2), quenched with 20 mM EDTA and analyzed for aggrecan fragments produced exclusively by cleavage at the Glu^373-Ala^374 bond within the aggrecan core protein using the monoclonal antibody, BC-3 (Hughes, C. E., et al., Biochem. J. 306:799-804, 1995). This antibody recognizes aggrecan fragments with the N-terminal sequence A^374RGSVIL . . . , generated upon cleavage by ADMPs. The BC-3 antibody recognizes this neoepitope only when it is the N-terminus and not when it is present internally within aggrecan fragments or within the intact aggrecan core protein. […]
After digestion, the samples were precipitated with 5 volumes of acetone and reconstituted in an appropriate volume of SDS-PAGE sample buffer, loaded on 4-12% gradient gels and then separated by SDS-PAGE under non reducing conditions, transferred overnight to nitrocellulose and immunolocated with 1:1000 dilution of the monoclonal antibody BC-3. […] BC-3-reactive aggrecan fragments were then quantified by scanning densitometry.

| Compound | binding of 67 kDa ADMP-1 to the affinity resin (ADMP-1; compound present during affinity purification) | inhibition of matrix metalloproteinases [1] | inhibition of ADMP activity (ADMP) | binding of 67 kDa ADMP-1 doublet to aggrecanase-inhibitor hydroxamate resin (ADMP-1; 10 uM compound included during affinity purification) |
| --- | --- | --- | --- | --- |
| CNC(=O)[C@H]1CCCNN1C(=O)[C@@H](CC(C)C)[C@@H](C)C(=O)NO [Compound A, N3-methyl-(3R)-2-[(2S)-2-[(1R)-2-(hydroxyamino)-1-methyl-2-oxoethyl]-4-methylpentanoyl]hexahydro-3-pyridazinecarboxamide] | not affected | broad spectrum inhibitor; also recorded: potent inhibitor | ineffective; also recorded: inactive |  |
| tissue inhibitor of metalloproteinases-1 [TIMP-1] |  |  | inhibited |  |
| CNC(=O)[C@@H]1CCCCNC(=O)CC[C@H](C(=O)NO)[C@H](CC(C)C)C(=O)N1 [Compound B, (2S,11S, 12S)-12-isobutyl-2-[(methylamino)carbonyl]-11[(hydroxylamino)carbonyl]-8,13-dioxo-1,7-diazacyclotridecane] |  |  | potent ADMP inhibitor | blocked |

Source: US6753176B2, “Aggrecan degrading metallo proteases” (Bristol-Myers Squibb Company, priority 1997, dated 2004)
